Measurements from paper PMC7457137, “An Integrated Pharmacokinetic Study of an Acanthopanax senticosus Extract Preparation by Combination of Virtual Screening, Systems Pharmacology, and Multi-Component Pharmacokinetics in Rats” (Frontiers in Pharmacology, 2020).

Legend:
AKT = test system: AKT; set-up: method as in Yang et al., 2018; details: down-regulates transcriptional activity of FoxO1; ref Yang et al., 2018; cited from earlier work
in vivo = assay type: in vivo, Sprague-Dawley rats; details: male, Sprague-Dawley, rat, in vivo, iv
[1] = Stability of the compounds in rat plasma (LC-MS validation); assay type: in vitro ADME
Text: According to the “Guidelines for non-clinical pharmacokinetics of drugs” issued by Centre for Drug Evaluation, National Medical Products Administration, China ([Guidelines for non-clinical pharmacokinetics of drugs, 2014]), the LC-MS method was validated by linearity, limits of detection (LOD), limits of quantification (LOQ), precision, accuracy, extraction recovery, matrix effect and stability of the 6 compounds in rat plasma. In brief, blank rat plasma was obtained from the other six rats. The standard mixture solution containing the 6 compounds (with the concentration of 1 mg/ml for each) was diluted with […] to prepare a series of working solution containing the 6 compounds (concentration level: 20, 50, 100, 250, 500 ng/ml and 1, 2.5, 5, 10, 25, 50, 100, 125 150, 200 μg/ml) and IS (2.5μg/ml). For calibration curve, 10 μl of the series of working solution containing the IS (2.5μg/ml) was added into 100 μl of blank plasma. Finally, 15 data points (2, 5, 10, 25, 50, 100, 250, 500 ng/ml and 1, 2.5, 5, 10, 12.5 15, 20 μg/ml) were used in the calibration curve linearity. Calibration curves were plotted by weighted linear regression of the peak area ratio of analyte to the IS against the related nominal concentration of the analyte. LOD and LOQ were defined as the detectable concentration at which the ratio of signal to noise was about 3 and 10, respectively ([Huang et al., 2019]). […] The extraction recovery and matrix effect were also assessed at the above-mentioned three concentration levels for the 6 ingredients in the spiked plasma samples ([Huang et al., 2019]). Stability was examined under the condition of setting un-treated plasma samples at ambient temperature for 6 h, and extracted plasma samples in auto-sampler for 10 h, as well as setting plasma samples for three freeze-thaw cycles and at −80°C for 15 days ([Guidelines for non-clinical pharmacokinetics of drugs, 2014]).

In the case of C=C[C@@H]1C2=CCOC(=O)C2=CO[C@H]1O[C@@H]1O[C@H](CO)[C@@H](O)[C@H](O)[C@H]1O [GPS, gentiopicroside], the “effect on phosphorylation of AKT” value (AKT) is listed as “activate the phosphorylation of AKT”, the “AUC0-∞” value (in vivo) is listed as 118.37 ± 6.75 ng·h/mL and the AUC(0-t) (in vivo) is listed as 108.95 ± 5.92 ng·h/mL. For the same molecule, the Cl (in vivo) was 3.83 ± 0.23 L/h, the MRT0-t (in vivo) was 15.6 ± 0.6 min and the “MRT0-∞” value (in vivo) was 21 ± 2.4 min. The Vd (in vivo) was 1.45 ± 0.16 L, the “t 1/2” value (in vivo) was 15.6 ± 2.4 min and the AUC(0-t) (in vivo; AUC0-t) was 63.6 ± 2.53 ng·h/mL. The AUC(0-inf) (in vivo; AUC0-∞) was 68.2 ± 1.88 ng·h/mL, the clearance (in vivo; Cl) was 55.3 mL/min and the MRT last (in vivo; MRT0-t) was 21.6 ± 0.6 min. For the same molecule, the MRT inf (in vivo; MRT0-∞) was 25.2 ± 3 min, the Vd (in vivo; Vd) was 1.08 ± 0.26 L and the half-life (in vivo; t 1/2) was 13.8 ± 3.6 min. For the same molecule, the “Stability, RE” value ([1]; extracted plasma samples, 10h in auto-sampler vials, high spiked level (HQC, 8000-16000 ng/mL)) was -9.29%, the “Stability, RE” value ([1]; extracted plasma samples, 10h in auto-sampler vials, low spiked level (LQC, 5-30 ng/mL)) was 10.09% and the “Stability, RE” value ([1]; extracted plasma samples, 10h in auto-sampler vials, middle spiked level (MQC, 400-1600 ng/mL)) was 2.52%. For the same molecule, the “Stability, RE” value ([1]; rat plasma, 6h at room temperature, high spiked level (HQC, 8000-16000 ng/mL)) was -13.56%, the “Stability, RE” value ([1]; rat plasma, 6h at room temperature, low spiked level (LQC, 5-30 ng/mL)) was -10.12% and the “Stability, RE” value ([1]; rat plasma, 6h at room temperature, middle spiked level (MQC, 400-1600 ng/mL)) was -6.72%. For the same molecule, the “Stability, RE” value ([1]; rat plasma, freeze-thaw stability (three cycles), high spiked level (HQC, 8000-16000 ng/mL)) was -2.10%, the “Stability, RE” value ([1]; rat plasma, freeze-thaw stability (three cycles), low spiked level (LQC, 5-30 ng/mL)) was 14.78% and the “Stability, RE” value ([1]; rat plasma, freeze-thaw stability (three cycles), middle spiked level (MQC, 400-1600 ng/mL)) was 1.22%. For the same molecule, the “Stability, RE” value ([1]; rat plasma, long-term stability (-80℃,15 days), high spiked level (HQC, 8000-16000 ng/mL)) was 9.68%, the “Stability, RE” value ([1]; rat plasma, long-term stability (-80℃,15 days), low spiked level (LQC, 5-30 ng/mL)) was 12.72% and the “Stability, RE” value ([1]; rat plasma, long-term stability (-80℃,15 days), middle spiked level (MQC, 400-1600 ng/mL)) was 4.29%.
